Our source for the IC50 and viability, T/C values is PubChem BioAssay AID1963437 (Molecular Pharmacology Branch, DTP, NCI, 2024).

For this test, the system named is OVCAR-8 complex spheroid, growth inhibition. In words: Anticancer human tumor OVCAR-8 cell line growth inhibition [Asc].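 For all read-outs here: spheroids exposed to agents for 7 days before readout.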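 For viability, T/C: percent viability relative to DMSO vehicle wells taken as 100%.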 As to conditions: for viability, T/C: stronger effect = lower value. In outline: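 Complex spheroids combining tumor cells with HUVEC endothelial cells and human MSCs, at 37 degrees C, 5% CO2; agents tested alone or combined, half-log dilutions from at or near clinical Cmax, or 10 microM if Cmax unknown.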

Where [1] appears, read: curve of first compound, second compound 0.0316 µM.
The mark [2] stands for this setting: curve of first compound, second compound 0.1 µM.
Setting [3] is: curve of first compound, second compound 0.316 µM.
[4] abbreviates: curve of first compound, second compound 1 µM.
Setting [5] is: second compound 0.0316 µM, first compound 0.000316 µM.
The mark [6] stands for this setting: second compound 0.0316 µM, first compound 0.001 µM.
Where [7] appears, read: second compound 0.0316 µM, first compound 0.00316 µM.
Setting [8] is: second compound 0.0316 µM, first compound 0.01 µM.
Where [9] appears, read: second compound 0.0316 µM, first compound 0.0316 µM.
The mark [10] stands for this setting: second compound 0.0316 µM, first compound 0.1 µM.
The mark [11] stands for this setting: second compound 0.1 µM, first compound 0.000316 µM.
The mark [12] stands for this setting: second compound 0.1 µM, first compound 0.001 µM.
The mark [13] stands for this setting: second compound 0.1 µM, first compound 0.00316 µM.
The mark [14] stands for this setting: second compound 0.1 µM, first compound 0.01 µM.
[15] abbreviates: second compound 0.1 µM, first compound 0.0316 µM.
Setting [16] is: second compound 0.1 µM, first compound 0.1 µM.
The mark [17] stands for this setting: second compound 0.316 µM, first compound 0.000316 µM.
[18] abbreviates: second compound 0.316 µM, first compound 0.001 µM.
Setting [19] is: second compound 0.316 µM, first compound 0.00316 µM.
[20] abbreviates: second compound 0.316 µM, first compound 0.01 µM.
Setting [21] is: second compound 0.316 µM, first compound 0.0316 µM.
The mark [22] stands for this setting: second compound 0.316 µM, first compound 0.1 µM.
[23] abbreviates: second compound 1 µM, first compound 0.000316 µM.
[24] abbreviates: second compound 1 µM, first compound 0.001 µM.
Where [25] appears, read: second compound 1 µM, first compound 0.00316 µM.
Setting [26] is: second compound 1 µM, first compound 0.01 µM.
The mark [27] stands for this setting: second compound 1 µM, first compound 0.0316 µM.
Where [28] appears, read: second compound 1 µM, first compound 0.1 µM.

“And” between values parts separate entries of the source, which are not always exact repeats. Identical values can stand only once. Where only a bound is given, the exact number is not on record here.

Consider `NC1CCC(NC2CC2c2ccccc2)CC1` (configuration not stated) + Cc1c(S(C)(=O)=O)c(-c2cc(F)cc(N3CCN(c4ccc(NS(=O)(=O)c5ccc(NC(CCN6CCC(C(=O)OCCCP(=O)(O)O)CC6)CSc6ccccc6)c(S(=O)(=O)C(F)(F)F)c5)cc4)CC3)c2)c(-c2ccc(Cl)cc2)n1C(C)C, for which the IC50 by setting is: under setting [1], above 100 nM; under setting [2], above 100 nM; under setting [3], above 100 nM; under setting [4], above 100 nM; (curve of first compound, second compound 3.16 µM) above 100 nM; (curve of first compound, second compound 10 µM) above 100 nM. The viability, T/C under setting [5] was 111%; the viability, T/C under setting [6] was 109%; the viability, T/C under setting [7] was 83.2%; the viability, T/C under setting [8] was 101%; the viability, T/C under setting [9] is 109%; the viability, T/C under setting [10] is 80.5%. The viability, T/C under setting [11] is 97.5%; the viability, T/C under setting [12] is 102%; the viability, T/C under setting [13] is 93.4%; the viability, T/C under setting [14] is 105%; the viability, T/C under setting [15] was 120%; the viability, T/C under setting [16] was 91.8%. Also, the viability, T/C under setting [17] was 99.2%; the viability, T/C under setting [18] was 97.3%; the viability, T/C under setting [19] was 111%; the viability, T/C under setting [20] was 100%; the viability, T/C under setting [21] is 108%; the viability, T/C under setting [22] is 106%. Also, the viability, T/C is 118% under setting [23]; 114% under setting [24]; 103% under setting [25]; 107% under setting [26]; 132% under setting [27]; 106% under setting [28]. Further, the viability, T/C (second compound 3.16 µM, first compound 0.000316 µM) was 99.3%; the viability, T/C (second compound 3.16 µM, first compound 0.001 µM) was 101%; the viability, T/C (second compound 3.16 µM, first compound 0.00316 µM) was 119%; the viability, T/C (second compound 3.16 µM, first compound 0.01 µM) is 118%; the viability, T/C (second compound 3.16 µM, first compound 0.0316 µM) was 123%; the viability, T/C (second compound 3.16 µM, first compound 0.1 µM) is 104%. The viability, T/C is 105% (second compound 10 µM, first compound 0.000316 µM); 99.6% (second compound 10 µM, first compound 0.001 µM); 113% (second compound 10 µM, first compound 0.00316 µM); 137% (second compound 10 µM, first compound 0.01 µM); 133% (second compound 10 µM, first compound 0.0316 µM); 118% (second compound 10 µM, first compound 0.1 µM).

Consider `CCN1CCN(Cc2ccc(Nc3ncc(F)c(-c4cc(F)c5nc(C)n(C(C)C)c5c4)n3)nc2)CC1`, for which the viability, T/C (compound 0.00316 µM) is 81.5% and 87.7% and 87.9%; the viability, T/C (compound 0.01 µM) was 101% and 93.5% and 90.3%; the viability, T/C (compound 0.0316 µM) is 93.1% and 93.5% and 107%; the viability, T/C (compound 0.1 µM) is 104% and 84.9% and 103%; the viability, T/C (compound 0.316 µM) is 98.6% and 100% and 98.5%; the viability, T/C (compound 1 µM) is 125% and 105% and 129%. Moreover, the IC50 (curve of compound) is above 1000 nM.

As for `Cn1ncnc1[C@H]1c2n[nH]c(=O)c3cc(F)cc(c23)N[C@@H]1c1ccc(F)cc1`, the viability, T/C was 92.4% and 93.5% and 99.5% (compound 0.000316 µM); 94.9% and 97.8% and 88.9% (compound 0.001 µM); 95.5% and 93.6% and 106% (compound 0.00316 µM); 114% and 102% and 109% (compound 0.01 µM); 115% and 117% and 105% (compound 0.0316 µM); 132% and 102% and 125% (compound 0.1 µM). Where the note is “curve of compound”, the IC50 was above 100 nM.

`C=C(F)C(=O)N1CCN(c2nc(OCC3CCCN3C)nc3c2CCN(c2cccc4cccc(Cl)c24)C3)CC1CC#N` (configuration not stated): the viability, T/C (compound 0.0316 µM) is 107% (2×) and 96.3%; the viability, T/C (compound 0.1 µM) was 113% and 98.5% and 93.6%; the viability, T/C (compound 0.316 µM) is 109% and 84.2% and 106%; the viability, T/C (compound 1 µM) is 101% and 105% and 104%; the viability, T/C (compound 3.16 µM) was 25.7% and 39.4% and 37.9%; the viability, T/C (compound 10 µM) is 0.33% and 0.7% and 1.79%. For the same compound, the IC50 (curve of compound) was 2190 nM and 2550 nM and 2560 nM.

As to `O=C(c1cc(Cc2n[nH]c(=O)c3ccccc23)ccc1F)N1CCN(C(=O)C2CC2)CC1`, the viability, T/C runs as follows: (compound 0.0316 µM) 105% and 97.4% and 98.4%; (compound 0.1 µM) 103% (2×) and 97.7%; (compound 0.316 µM) 99% and 82.4% and 107%; (compound 1 µM) 117% and 95.4% and 121%; (compound 3.16 µM) 134% and 104% and 110%; (compound 10 µM) 116% and 122% and 95.5%. Further, the IC50 (curve of compound) was above 10000 nM.

As for `NC(=O)C(=Cn1cnc(-c2cc(C(F)(F)F)cc(C(F)(F)F)c2)n1)c1cncnc1`, the viability, T/C (compound 0.000949 µM) is 100% and 101% and 69.2%; the viability, T/C (compound 0.003 µM) was 90% and 81.8% and 98.6%; the viability, T/C (compound 0.00949 µM) was 99.8% and 91.2% and 111%; the viability, T/C (compound 0.03 µM) was 95.4% and 109% and 92.8%. Further, the IC50 (curve of compound) was > 300 nM and 54.1 nM.

`NC1CCC(NC2CC2c2ccccc2)CC1` (configuration not stated) + CNC(C)C(=O)NC1CN(S(=O)(=O)c2cccc(S(=O)(=O)N3CCC4CCC(C(=O)NC(c5ccccc5)c5ccccc5)N4C(=O)C(NC(=O)C(C)NC)C3)c2)CCC2CCC(C(=O)NC(c3ccccc3)c3ccccc3)N2C1=O: the IC50 reads like this: (curve of first compound, second compound 0.00316 µM) above 100 nM; (curve of first compound, second compound 0.01 µM) above 100 nM; under setting [1], above 100 nM; under setting [2], above 100 nM; under setting [3], above 100 nM; under setting [4], above 100 nM. For the same compound, the viability, T/C is, setting by setting: (second compound 0.00316 µM, first compound 0.000316 µM) 117%; (second compound 0.00316 µM, first compound 0.001 µM) 106%; (second compound 0.00316 µM, first compound 0.00316 µM) 102%; (second compound 0.00316 µM, first compound 0.01 µM) 90.9%; (second compound 0.00316 µM, first compound 0.0316 µM) 99.4%; (second compound 0.00316 µM, first compound 0.1 µM) 87.1%. Besides, the viability, T/C is 118% (second compound 0.01 µM, first compound 0.000316 µM); 87.7% (second compound 0.01 µM, first compound 0.001 µM); 119% (second compound 0.01 µM, first compound 0.00316 µM); 91.5% (second compound 0.01 µM, first compound 0.01 µM); 86.7% (second compound 0.01 µM, first compound 0.0316 µM); 91.7% (second compound 0.01 µM, first compound 0.1 µM). The viability, T/C runs as follows: under setting [5], 93.9%; under setting [6], 112%; under setting [7], 96.3%; under setting [8], 98.5%; under setting [9], 101%; under setting [10], 107%. Further, the viability, T/C is 79.2% under setting [11]; 79.2% under setting [12]; 93.3% under setting [13]; 93% under setting [14]; 88.4% under setting [15]; 104% under setting [16]. Further, the viability, T/C by setting is: under setting [17], 78.8%; under setting [18], 86.6%; under setting [19], 88.2%; under setting [20], 80%; under setting [21], 82.8%; under setting [22], 87.2%. The viability, T/C under setting [23] was 77.9%; the viability, T/C under setting [24] was 79.3%; the viability, T/C under setting [25] was 94%; the viability, T/C under setting [26] is 74.7%; the viability, T/C under setting [27] is 85.3%; the viability, T/C under setting [28] is 85.7%.

What is called IC50 is the midpoint of a concentration-inhibition curve. For orientation: viability, T/C means the result in the treated group divided by that in the control group, in per cent.
